# Assay results from article PMC6737244, “Cathelicidin Peptides Restrict Bacterial Growth via Membrane Perturbation and Induction of Reactive Oxygen Species” (mBio, 2019).
# Ends that are not written are not given here.
# Legend:
# [1] = tested on: P. aeruginosa; assay: Growth of cultures (OD600) with sublethal peptide; conditions: 20 nM, 2 h, CAMHB
# [2] = tested on: V. cholerae; assay: Survival (CFU) with B22 with or without ROS scavengers or SodA
# Description: The membrane-permeable iron chelating agent 2,2′-dipyridyl (DP) efficiently chelates free Fe^2+ and the scavenger thiourea (TU) directly quenches hydroxyl radicals generated by the Fenton reaction.
# To inhibit Fenton chemistry in the cytoplasm, cells were pretreated with 75 μM concentration of the membrane-permeable agent 2,2′-dipyridyl (DP), which efficiently chelates free Fe^2+, and 150 μM concentration of the scavenger thiourea (TU), which directly quenches Fenton-generated hydroxyl radicals ([50]). These concentrations of DP and TU were confirmed not to affect bacterial growth.
# [3] = tested on: E. coli UTI89; assay: Differential gene expression after peptide exposure; type: cell-based, Escherichia coli; conditions: 30 nM, 5-min exposure
# Description: To determine the mechanism by which sublethal concentrations of cathelicidins affect bacterial cell physiology, we sought to analyze gene expression prior to and after a 5-min exposure to 30 nM B22a. The chromosomal integron of V. cholerae contains hundreds of repeats and horizontally acquired genes of unknown function ([20][–][23]). Moreover, many of these genes are duplicated, which can further complicate interpreting gene expression patterns. We elected to examine peptide-induced expression changes in E. coli to simplify gene identification and assignment of potential functions. Significant changes in expression were identified for genes whose products participate in global processes such as protein synthesis, protein folding, protein secretion, intracellular pH, membrane modification, c-di-GMP production, peptidoglycan biosynthesis, respiration, and detoxification of reactive oxygen species (ROS) (Table 2). Perturbation of peptidoglycan synthesis was consistent with the membrane blebbing we observed following B22 and B22a treatment. Other notable changes included arnF, the product of which modifies the lipid A moiety of lipopolysaccharide (LPS) with 4-amino-4-deoxy-L-arabinose (L-Ara4N) to confer resistance to polymyxin and cationic antimicrobial peptides in E. coli and Salmonella enterica serotype Typhimurium ([24], [25]). c-di-GMP-dependent Psl exopolysaccharide production is part of the first line of defense against reactive oxygen species in P. aeruginosa ([26]). The respiratory chain is a major source of periplasmic ROS such as superoxide (O2^−) and hydrogen peroxide (H2O2) ([27]), and cytosolic flavoenzymes such as fumarate reductase (Frd) can generate O2^−, H2O2, and hydroxyl radical (^·OH) that damages membrane lipids, DNA, and proteins. ArcA is important for regulating bacterial resistance to ROS under aerobic conditions, and OxyR directly senses H2O2 to induce expression of a slew of genes, including ahpC and gshA, to counter H2O2 accumulation ([28], [29]).
substance,measurement,setting,value
FRKKLKKLFKKLSPVIPLLKLG [B22],Initial growth of P. aeruginosa relative to control,[1],significantly reduced
same,Killing of V. cholerae overproducing SodA,[2]; 2.5 μM B22,completely suppressed
same,Decrease in survival of V. cholerae overexpressing SodA,[2]; 5 μM B22,10 fold
same,Decrease in survival,"[2]; V. cholerae, 2.5 μM B22",3 log10 units
same,Increase in survival by preincubation with 75 μM DP and 150 mM TU in combination,"[2]; V. cholerae, prior to addition of B22",13 fold
FRKKLKKLFKKLSPVIPLLKLG-NH2 [B22a],"Log2 fold change, ahpC (UTI89_C0608)",[3],−1.35
same,"Log2 fold change, ansB (UTI89_C3346)",[3],−3.26
same,"Log2 fold change, arcA (UTI89_C5174)",[3],−1.55
same,"Log2 fold change, ardB (UTI89_C2011)",[3],−1.39
same,"Log2 fold change, arnF (yfbJ) (UTI89_C2541)",[3],1.44
same,"Log2 fold change, arrD (UTI89_C1304)",[3],2.56
same,"Log2 fold change, asnA (UTI89_C4299)",[3],−1.38
same,"Log2 fold change, asnS (UTI89_C1002)",[3],−1.19
same,"Log2 fold change, aspA (UTI89_C4736)",[3],−2.31
same,"Log2 fold change, ccmH (UTI89_C2472)",[3],−1.19
same,"Log2 fold change, citB (UTI89_C0624)",[3],−2.71
same,"Log2 fold change, cspA (UTI89_C4097)",[3],1.44
same,"Log2 fold change, cspG (UTI89_C1051)",[3],1.67
same,"Log2 fold change, cybC (UTI89_C4840)",[3],−2.73
same,"Log2 fold change, cyoD (UTI89_C0453)",[3],1.80
same,"Log2 fold change, cysM (UTI89_C2754)",[3],−2.60
same,"Log2 fold change, dapC (UTI89_C3862)",[3],−1.97
same,"Log2 fold change, dcuA (UTI89_C4735)",[3],−2.63
same,"Log2 fold change, dgkA (UTI89_C4612)",[3],−1.71
same,"Log2 fold change, eno (UTI89_C3148)",[3],−2.02
same,"Log2 fold change, evgS (UTI89_C2702)",[3],1.30
same,"Log2 fold change, fabA (UTI89_C1019)",[3],−1.48
same,"Log2 fold change, fdoG (UTI89_C4481)",[3],1.13
same,"Log2 fold change, fimX (UTI89_C0338)",[3],1.57
same,"Log2 fold change, frdA (UTI89_C4754)",[3],−1.78
same,"Log2 fold change, frdB (UTI89_C4753)",[3],−2.97
same,"Log2 fold change, fusA (UTI89_C3842)",[3],−1.22
same,"Log2 fold change, gadX (UTI89_C4048)",[3],1.74
same,"Log2 fold change, gapA (UTI89_C1975)",[3],−2.34
same,"Log2 fold change, gmhB (UTI89_C0216)",[3],−2.02
same,"Log2 fold change, gnd (UTI89_C2302)",[3],−1.41
same,"Log2 fold change, gshA (UTI89_C3050)",[3],−1.92
same,"Log2 fold change, gsk (UTI89_C0505)",[3],1.20
same,"Log2 fold change, holE (UTI89_C2044)",[3],2.85
same,"Log2 fold change, hslJ (UTI89_C1622)",[3],−1.15
same,"Log2 fold change, manY (UTI89_C2016)",[3],−1.16
same,"Log2 fold change, marR (UTI89_C1833)",[3],1.29
same,"Log2 fold change, mcbR (UTI89_C1669)",[3],2.96
same,"Log2 fold change, mdoG (UTI89_C1172)",[3],1.63
same,"Log2 fold change, mrcB (UTI89_C0165)",[3],1.85
same,"Log2 fold change, mrp (UTI89_C2387)",[3],−1.64
same,"Log2 fold change, mtgA (UTI89_C3644)",[3],1.90
same,"Log2 fold change, napC (UTI89_C2480)",[3],−2.52
same,"Log2 fold change, narP (UTI89_C2471)",[3],−2.02
same,"Log2 fold change, ompC (UTI89_C2497)",[3],−1.11
same,"Log2 fold change, ompT (UTI89_C0566)",[3],1.11
same,"Log2 fold change, orf (UTI89_C0124)",[3],1.89
same,"Log2 fold change, orf (UTI89_C1095)",[3],1.47
same,"Log2 fold change, orf (UTI89_C1152)",[3],1.40
same,"Log2 fold change, orf (UTI89_C1286)",[3],1.09
same,"Log2 fold change, orf (UTI89_C3928)",[3],1.10
same,"Log2 fold change, orf (UTI89_C4380)",[3],−1.48
same,"Log2 fold change, oxyR (UTI89_C4554)",[3],1.11
same,"Log2 fold change, pflB (UTI89_C0974)",[3],−2.71
same,"Log2 fold change, ptsK (UTI89_C2748)",[3],−1.06
same,"Log2 fold change, rpmE (UTI89_C4521)",[3],1.08
same,"Log2 fold change, rtcA (UTI89_C3920)",[3],−2.90
same,"Log2 fold change, sdaB (UTI89_C3168)",[3],−3.16
same,"Log2 fold change, sdaC (UTI89_C3167)",[3],−2.21
same,"Log2 fold change, secB (UTI89_C4151)",[3],−2.45
same,"Log2 fold change, secY (UTI89_C3746)",[3],−1.36
same,"Log2 fold change, serS (UTI89_C0908)",[3],−2.29
same,"Log2 fold change, torY (UTI89_C2077)",[3],1.03
same,"Log2 fold change, tpiA (UTI89_C4503)",[3],−1.16
same,"Log2 fold change, uspE (UTI89_C1604)",[3],1.28
same,"Log2 fold change, wbgM (UTI89_C2303)",[3],1.29
same,"Log2 fold change, xdhC (UTI89_C3253)",[3],−2.37
same,"Log2 fold change, yaaY (UTI89_C0026)",[3],1.32
same,"Log2 fold change, yacH (UTI89_C0130)",[3],1.39
same,"Log2 fold change, yaiS (UTI89_C2239)",[3],1.92
same,"Log2 fold change, ybcS1 (UTI89_C1303)",[3],2.14
same,"Log2 fold change, ybfN (UTI89_C0686)",[3],1.22
same,"Log2 fold change, ybjD (UTI89_C0880)",[3],1.31
same,"Log2 fold change, ycaD (UTI89_C0972)",[3],−1.66
same,"Log2 fold change, yciL (UTI89_C1537)",[3],−1.27
same,"Log2 fold change, ydeH (UTI89_C1760)",[3],4.38
same,"Log2 fold change, ydiU (UTI89_C1899)",[3],1.27
same,"Log2 fold change, yecR (UTI89_C2105)",[3],−2.29
same,"Log2 fold change, yehE (UTI89_C2386)",[3],−1.09
same,"Log2 fold change, yfaE (UTI89_C2517)",[3],−2.34
same,"Log2 fold change, yfbR (UTI89_C2573)",[3],−1.89
same,"Log2 fold change, yfcD (UTI89_C2583)",[3],−1.88
same,"Log2 fold change, yfeK (UTI89_C2753)",[3],−1.41
same,"Log2 fold change, ygdI (UTI89_C3181)",[3],1.30
same,"Log2 fold change, ygdI (UTI89_C3182)",[3],1.31
same,"Log2 fold change, ygdR (UTI89_C3236)",[3],1.12
same,"Log2 fold change, yghU (UTI89_C3411)",[3],−2.15
same,"Log2 fold change, yhbQ (UTI89_C3582)",[3],−1.70
same,"Log2 fold change, yhbW (UTI89_C3587)",[3],−1.14
same,"Log2 fold change, yhcO (UTI89_C3670)",[3],1.80
same,"Log2 fold change, yhdL (UTI89_C3736)",[3],1.09
same,"Log2 fold change, yjbK (UTI89_C4616)",[3],1.10
same,"Log2 fold change, yjcC (UTI89_C4647)",[3],−1.25
same,"Log2 fold change, yjeH (UTI89_C4739)",[3],−1.27
same,"Log2 fold change, yjeI (UTI89_C4742)",[3],−1.76
same,"Log2 fold change, yjgF (ridA) (UTI89_C4848)",[3],2.24
same,"Log2 fold change, ykgH (UTI89_C0333)",[3],−2.93
same,"Log2 fold change, ymdC (UTI89_C1169)",[3],1.04
same,"Log2 fold change, ymgA (UTI89_C1348)",[3],1.77
same,"Log2 fold change, ynfJ (UTI89_C1779)",[3],−1.82
same,"Log2 fold change, ynhG (UTI89_C1870)",[3],1.34
same,"Log2 fold change, yqgD (UTI89_C3330)",[3],1.11
same,"Log2 fold change, yrdA (UTI89_C3724)",[3],1.02
same,"Log2 fold change, yrdE (UTI89_C3686)",[3],−2.10
